Measured values from PubChem BioAssay AID1963827 (Molecular Pharmacology Branch, DTP, NCI, 2024).
pIC50: −log10 of the molar value.

Tested on: 994946-033-R-J1-PDC complex spheroid viability
Assay: Anticancer human tumor 994946-033-R-J1-PDC patient-derived melanoma cell line growth inhibition [POLQ]
Details: for pIC50: curve of first compound; for viability, T/C: stronger effect = lower value
Method in brief: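 Three-cell-type spheroids modelling solid tumor plus stroma served as the readout system; POL inhibitors were tested individually and in combination, concentration ranges set by clinical Cmax where known.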

[1] = second compound 0.0316 µM, first compound 0.0316 µM
[2] = second compound 0.0316 µM, first compound 0.1 µM
[3] = second compound 0.0316 µM, first compound 0.316 µM
[4] = second compound 0.0316 µM, first compound 1 µM
[5] = second compound 0.0316 µM, first compound 3.16 µM
[6] = second compound 0.0316 µM, first compound 10 µM
[7] = second compound 0.1 µM, first compound 0.0316 µM
[8] = second compound 0.1 µM, first compound 0.1 µM
[9] = second compound 0.1 µM, first compound 0.316 µM
[10] = second compound 0.1 µM, first compound 1 µM
[11] = second compound 0.1 µM, first compound 3.16 µM
[12] = second compound 0.1 µM, first compound 10 µM
[13] = second compound 0.316 µM, first compound 0.0316 µM
[14] = second compound 0.316 µM, first compound 0.1 µM
[15] = second compound 0.316 µM, first compound 0.316 µM
[16] = second compound 0.316 µM, first compound 1 µM
[17] = second compound 0.316 µM, first compound 3.16 µM
[18] = second compound 0.316 µM, first compound 10 µM
[19] = second compound 1 µM, first compound 0.0316 µM
[20] = second compound 1 µM, first compound 0.1 µM
[21] = second compound 1 µM, first compound 0.316 µM
[22] = second compound 1 µM, first compound 1 µM
[23] = second compound 1 µM, first compound 3.16 µM
[24] = second compound 1 µM, first compound 10 µM
[25] = second compound 3.16 µM, first compound 0.0316 µM
[26] = second compound 3.16 µM, first compound 0.1 µM
[27] = second compound 3.16 µM, first compound 0.316 µM
[28] = second compound 3.16 µM, first compound 1 µM
[29] = second compound 3.16 µM, first compound 3.16 µM
[30] = second compound 3.16 µM, first compound 10 µM
[31] = second compound 10 µM, first compound 0.0316 µM
[32] = second compound 10 µM, first compound 0.1 µM
[33] = second compound 10 µM, first compound 0.316 µM
[34] = second compound 10 µM, first compound 1 µM
[35] = second compound 10 µM, first compound 3.16 µM
[36] = second compound 10 µM, first compound 10 µM
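Note: spheroids exposed to drugs for 7 days.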
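Throughout, for viability, T/C: 100% = DMSO vehicle treated spheroids.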

## CC(C)n1c(=O)n(C)c2cnc3cc(F)c(-c4ccc(OCCCN5CCCCC5)nc4)cc3c21 + COC1C(OC(N)=O)C(O)C(Oc2ccc3c(O)c(NC(=O)c4ccc(O)c(CC=C(C)C)c4)c(=O)oc3c2C)OC1(C)C
Second compound 0.0316 µM
  pIC50: 5.34
Second compound 0.1 µM
  pIC50: 5.30
Second compound 0.316 µM
  pIC50: 5.07
Second compound 1 µM
  pIC50: 5.28
Second compound 3.16 µM
  pIC50: < 5.00
Second compound 10 µM
  pIC50: 5.20
[1]
  viability, T/C: 81.5%
[2]
  viability, T/C: 65.5%
[3]
  viability, T/C: 81.1%
[4]
  viability, T/C: 59.1%
[5]
  viability, T/C: 60%
[6]
  viability, T/C: 36.8%
[7]
  viability, T/C: 73.7%
[8]
  viability, T/C: 100%
[9]
  viability, T/C: 78.3%
[10]
  viability, T/C: 69.8%
[11]
  viability, T/C: 65.2%
[12]
  viability, T/C: 31.6%
[13]
  viability, T/C: 74.5%
[14]
  viability, T/C: 76.7%
[15]
  viability, T/C: 68.2%
[16]
  viability, T/C: 68.3%
[17]
  viability, T/C: 79.8%
[18]
  viability, T/C: 46.5%
[19]
  viability, T/C: 86.7%
[20]
  viability, T/C: 86.5%
[21]
  viability, T/C: 87%
[22]
  viability, T/C: 102%
[23]
  viability, T/C: 64.5%
[24]
  viability, T/C: 31.6%
[25]
  viability, T/C: 81.8%
[26]
  viability, T/C: 68.5%
[27]
  viability, T/C: 92.9%
[28]
  viability, T/C: 93.8%
[29]
  viability, T/C: 66.1%
[30]
  viability, T/C: 50.6%
[31]
  viability, T/C: 76.1%
[32]
  viability, T/C: 65.9%
[33]
  viability, T/C: 66.1%
[34]
  viability, T/C: 82%
[35]
  viability, T/C: 62.1%
[36]
  viability, T/C: 40.1%

## CCc1c2c(nc3ccc(O)cc13)-c1cc3c(c(=O)n1C2)COC(=O)[C@]3(O)CC + Cc1cccc(N(C)C(=O)C2C(O)CCN2c2nc(C)cc(C(F)(F)F)c2C#N)c1
Second compound 0.0316 µM
  pIC50: > 8.50
Second compound 0.1 µM
  pIC50: > 8.50
Second compound 0.316 µM
  pIC50: > 8.50
Second compound 1 µM
  pIC50: > 8.50
Second compound 3.16 µM
  pIC50: > 8.50
Second compound 10 µM
  pIC50: > 8.50
Second compound 0.0316 µM, first compound 0.00316 µM
  viability, T/C: 17.5%
Second compound 0.0316 µM, first compound 0.01 µM
  viability, T/C: 10.9%
[1]
  viability, T/C: 5%
[2]
  viability, T/C: 5.25%
[3]
  viability, T/C: 2.7%
[4]
  viability, T/C: 1.11%
Second compound 0.1 µM, first compound 0.00316 µM
  viability, T/C: 18.9%
Second compound 0.1 µM, first compound 0.01 µM
  viability, T/C: 10%
[7]
  viability, T/C: 7.4%
[8]
  viability, T/C: 5.26%
[9]
  viability, T/C: 3.12%
[10]
  viability, T/C: 0.8%
Second compound 0.316 µM, first compound 0.00316 µM
  viability, T/C: 18.6%
Second compound 0.316 µM, first compound 0.01 µM
  viability, T/C: 8.02%
[13]
  viability, T/C: 5.77%
[14]
  viability, T/C: 4.13%
[15]
  viability, T/C: 4.1%
[16]
  viability, T/C: 1.27%
Second compound 1 µM, first compound 0.00316 µM
  viability, T/C: 18.7%
Second compound 1 µM, first compound 0.01 µM
  viability, T/C: 8.88%
[19]
  viability, T/C: 5.58%
[20]
  viability, T/C: 7.75%
[21]
  viability, T/C: 3.43%
[22]
  viability, T/C: 1.3%
Second compound 3.16 µM, first compound 0.00316 µM
  viability, T/C: 26.8%
Second compound 3.16 µM, first compound 0.01 µM
  viability, T/C: 12%
[25]
  viability, T/C: 8.11%
[26]
  viability, T/C: 5.61%
[27]
  viability, T/C: 2.9%
[28]
  viability, T/C: 0.8%
Second compound 10 µM, first compound 0.00316 µM
  viability, T/C: 17.9%
Second compound 10 µM, first compound 0.01 µM
  viability, T/C: 9.1%
[31]
  viability, T/C: 5.89%
[32]
  viability, T/C: 4%
[33]
  viability, T/C: 2.6%
[34]
  viability, T/C: 0.66%

## COc1cc(C2c3cc4c(cc3C(OC3OC5COC(C)OC5C(O)C3O)C3COC(=O)C23)OCO4)cc(OC)c1O (stereo unspecified) + Cc1cccc(N(C)C(=O)C2C(O)CCN2c2nc(C)cc(C(F)(F)F)c2C#N)c1
Second compound 0.0316 µM
  pIC50: 6.74
Second compound 0.1 µM
  pIC50: 6.79
Second compound 0.316 µM
  pIC50: 6.60
Second compound 1 µM
  pIC50: 6.68
Second compound 3.16 µM
  pIC50: 6.41
Second compound 10 µM
  pIC50: 5.90
[1]
  viability, T/C: 76.3%
[2]
  viability, T/C: 55.2%
[3]
  viability, T/C: 42.6%
[4]
  viability, T/C: 32.4%
[5]
  viability, T/C: 14.2%
[6]
  viability, T/C: 6.56%
[7]
  viability, T/C: 77.8%
[8]
  viability, T/C: 47.9%
[9]
  viability, T/C: 44.9%
[10]
  viability, T/C: 32.4%
[11]
  viability, T/C: 10.9%
[12]
  viability, T/C: 5.27%
[13]
  viability, T/C: 79.7%
[14]
  viability, T/C: 63.1%
[15]
  viability, T/C: 34.4%
[16]
  viability, T/C: 49.7%
[17]
  viability, T/C: 12.9%
[18]
  viability, T/C: 8.08%
[19]
  viability, T/C: 89.2%
[20]
  viability, T/C: 49.1%
[21]
  viability, T/C: 47.2%
[22]
  viability, T/C: 35.3%
[23]
  viability, T/C: 13.5%
[24]
  viability, T/C: 5.19%
[25]
  viability, T/C: 72.5%
[26]
  viability, T/C: 64.5%
[27]
  viability, T/C: 56.8%
[28]
  viability, T/C: 27.4%
[29]
  viability, T/C: 14.1%
[30]
  viability, T/C: 5.31%
[31]
  viability, T/C: 67.5%
[32]
  viability, T/C: 45.3%
[33]
  viability, T/C: 63.3%
[34]
  viability, T/C: 58.7%
[35]
  viability, T/C: 14.8%
[36]
  viability, T/C: 6.96%
